Measured values published in the kinase profiling compilation of Christmann-Franck et al. (2016).
“And” between values parts separate entries of the source, which are not always exact repeats. Equal values may be shown once.

How the values were obtained:
Experiment in all cases: KINOMEscan competition binding
Details in all cases: compound 10.0 µM
[1] = target: AURKB (human) (UniProt Q96GD4)
[2] = target: BMPR2 (human) (UniProt Q13873)
[3] = target: CAMK1D (human) (UniProt Q8IU85)
[4] = target: CAMK1G (human) (UniProt Q96NX5)
[5] = target: CAMK2A (human) (UniProt Q9UQM7)
[6] = target: CDKL1 (human) (UniProt Q00532)
[7] = target: CHEK1 (human) (UniProt O14757)
[8] = target: CHUK (human) (UniProt O15111)
[9] = target: CSK (human) (UniProt P41240)
[10] = target: DAPK2 (human) (UniProt Q9UIK4)
[11] = target: DCLK1 (human) (UniProt O15075)
[12] = target: FES (human) (UniProt P07332)
[13] = target: FGFR3 (human) (UniProt P22607)
[14] = target: FRK (human) (UniProt P42685)
[15] = target: GAK (human) (UniProt O14976)
[16] = target: GRK4 (human) (UniProt P32298)
[17] = target: GSK3A (human) (UniProt P49840)
[18] = target: HIPK3 (human) (UniProt Q9H422)
[19] = target: HUNK (human) (UniProt P57058)
[20] = target: IRAK1 (human) (UniProt P51617)
[21] = target: LCK (human) (UniProt P06239)
[22] = target: LIMK2 (human) (UniProt P53671)
[23] = target: MAP2K1 (human) (UniProt Q02750)
[24] = target: MAP3K13 (human) (UniProt O43283)
[25] = target: MAPK14 (human) (UniProt Q16539)
[26] = target: MUSK (human) (UniProt O15146)
[27] = target: NEK11 (human) (UniProt Q8NG66)
[28] = target: PDPK1 (human) (UniProt O15530)
[29] = target: PKN2 (human) (UniProt Q16513)
[30] = target: PRKACB (human) (UniProt P22694)
[31] = target: PRKD1 (human) (UniProt Q15139)
[32] = target: RPS6KA1 KD2 (human) (UniProt Q15418)
[33] = target: SGK3 (human) (UniProt Q96BR1)
[34] = target: STK32C (human) (UniProt Q86UX6)
[35] = target: STK4 (human) (UniProt Q13043)
[36] = target: ULK1 (human) (UniProt O75385)
[37] = target: ULK3 (human) (UniProt Q6PHR2)
[38] = test system: ABL1 (human), P00519 [Y253F]
[39] = test system: FLT3 (human), P36888 [D835H]
[40] = target: INSR (human) (UniProt P06213)
[41] = target: KIT (human) (UniProt P10721)

Chain of IRAK1 (human) (P51617 whole entry, looked up): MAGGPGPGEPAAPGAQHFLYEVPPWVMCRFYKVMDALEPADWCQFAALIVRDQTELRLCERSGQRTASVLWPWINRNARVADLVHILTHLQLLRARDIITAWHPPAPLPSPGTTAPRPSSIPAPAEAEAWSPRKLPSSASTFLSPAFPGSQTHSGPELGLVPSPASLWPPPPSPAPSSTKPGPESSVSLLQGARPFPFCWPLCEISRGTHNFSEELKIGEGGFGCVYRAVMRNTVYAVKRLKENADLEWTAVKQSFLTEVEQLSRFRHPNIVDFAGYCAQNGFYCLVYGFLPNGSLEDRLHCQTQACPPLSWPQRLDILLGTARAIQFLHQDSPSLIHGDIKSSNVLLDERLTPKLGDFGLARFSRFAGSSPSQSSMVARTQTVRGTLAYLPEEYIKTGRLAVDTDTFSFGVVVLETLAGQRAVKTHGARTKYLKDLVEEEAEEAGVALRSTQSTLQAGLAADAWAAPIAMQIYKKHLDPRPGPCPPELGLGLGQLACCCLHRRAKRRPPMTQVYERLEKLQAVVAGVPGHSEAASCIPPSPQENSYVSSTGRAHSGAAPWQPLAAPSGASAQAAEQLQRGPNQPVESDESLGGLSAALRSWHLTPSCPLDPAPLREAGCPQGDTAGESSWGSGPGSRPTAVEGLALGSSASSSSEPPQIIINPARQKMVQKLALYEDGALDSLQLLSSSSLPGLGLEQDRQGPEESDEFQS
Chain of FGFR3 (human) (P22607 whole entry, looked up): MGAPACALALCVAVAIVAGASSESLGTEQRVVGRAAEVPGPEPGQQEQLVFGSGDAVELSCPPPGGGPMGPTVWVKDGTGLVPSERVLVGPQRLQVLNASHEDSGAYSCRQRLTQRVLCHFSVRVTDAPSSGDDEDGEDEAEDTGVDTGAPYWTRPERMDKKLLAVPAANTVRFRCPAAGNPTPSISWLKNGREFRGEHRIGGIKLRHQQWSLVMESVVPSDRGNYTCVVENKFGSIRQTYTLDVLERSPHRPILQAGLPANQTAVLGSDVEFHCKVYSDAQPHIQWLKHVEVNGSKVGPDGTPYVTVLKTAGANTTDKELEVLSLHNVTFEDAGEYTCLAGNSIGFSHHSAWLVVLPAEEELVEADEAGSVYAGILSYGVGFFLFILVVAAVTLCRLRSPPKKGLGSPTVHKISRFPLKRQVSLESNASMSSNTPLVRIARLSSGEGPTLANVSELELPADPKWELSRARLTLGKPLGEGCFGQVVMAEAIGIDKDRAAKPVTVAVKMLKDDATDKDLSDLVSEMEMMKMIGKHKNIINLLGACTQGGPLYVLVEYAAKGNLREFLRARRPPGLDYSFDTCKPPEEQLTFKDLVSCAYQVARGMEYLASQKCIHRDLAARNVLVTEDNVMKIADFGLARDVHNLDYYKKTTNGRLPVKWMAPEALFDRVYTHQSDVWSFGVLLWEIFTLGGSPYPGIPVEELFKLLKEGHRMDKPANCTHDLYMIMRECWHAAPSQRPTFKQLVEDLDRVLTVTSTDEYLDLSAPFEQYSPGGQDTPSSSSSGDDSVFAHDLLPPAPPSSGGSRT
Chain of MAP3K13 (human) (O43283 whole entry, looked up): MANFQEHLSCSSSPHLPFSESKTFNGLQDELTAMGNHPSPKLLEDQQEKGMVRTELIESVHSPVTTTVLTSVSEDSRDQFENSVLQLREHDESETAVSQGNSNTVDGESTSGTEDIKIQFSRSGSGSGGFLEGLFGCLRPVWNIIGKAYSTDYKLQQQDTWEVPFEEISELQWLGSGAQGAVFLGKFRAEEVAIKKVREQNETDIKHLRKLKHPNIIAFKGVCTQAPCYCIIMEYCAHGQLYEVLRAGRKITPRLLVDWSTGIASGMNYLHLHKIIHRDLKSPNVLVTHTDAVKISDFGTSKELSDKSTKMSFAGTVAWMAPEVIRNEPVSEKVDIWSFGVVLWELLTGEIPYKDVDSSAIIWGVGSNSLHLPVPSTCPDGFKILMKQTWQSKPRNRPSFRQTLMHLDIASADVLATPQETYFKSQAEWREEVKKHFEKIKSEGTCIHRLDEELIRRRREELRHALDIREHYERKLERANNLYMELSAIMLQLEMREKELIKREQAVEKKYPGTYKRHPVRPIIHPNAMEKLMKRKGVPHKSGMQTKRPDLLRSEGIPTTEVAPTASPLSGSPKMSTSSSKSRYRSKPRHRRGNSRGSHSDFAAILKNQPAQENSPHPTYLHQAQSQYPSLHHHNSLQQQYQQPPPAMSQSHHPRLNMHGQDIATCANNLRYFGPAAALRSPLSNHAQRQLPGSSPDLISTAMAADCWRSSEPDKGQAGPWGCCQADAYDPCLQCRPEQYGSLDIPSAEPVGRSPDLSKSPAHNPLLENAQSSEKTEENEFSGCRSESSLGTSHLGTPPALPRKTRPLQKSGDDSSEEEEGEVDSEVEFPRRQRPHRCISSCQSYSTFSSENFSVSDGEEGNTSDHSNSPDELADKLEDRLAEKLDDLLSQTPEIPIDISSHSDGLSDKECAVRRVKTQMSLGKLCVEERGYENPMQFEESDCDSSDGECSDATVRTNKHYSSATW
Chain of BMPR2 (human) (Q13873 whole entry, looked up): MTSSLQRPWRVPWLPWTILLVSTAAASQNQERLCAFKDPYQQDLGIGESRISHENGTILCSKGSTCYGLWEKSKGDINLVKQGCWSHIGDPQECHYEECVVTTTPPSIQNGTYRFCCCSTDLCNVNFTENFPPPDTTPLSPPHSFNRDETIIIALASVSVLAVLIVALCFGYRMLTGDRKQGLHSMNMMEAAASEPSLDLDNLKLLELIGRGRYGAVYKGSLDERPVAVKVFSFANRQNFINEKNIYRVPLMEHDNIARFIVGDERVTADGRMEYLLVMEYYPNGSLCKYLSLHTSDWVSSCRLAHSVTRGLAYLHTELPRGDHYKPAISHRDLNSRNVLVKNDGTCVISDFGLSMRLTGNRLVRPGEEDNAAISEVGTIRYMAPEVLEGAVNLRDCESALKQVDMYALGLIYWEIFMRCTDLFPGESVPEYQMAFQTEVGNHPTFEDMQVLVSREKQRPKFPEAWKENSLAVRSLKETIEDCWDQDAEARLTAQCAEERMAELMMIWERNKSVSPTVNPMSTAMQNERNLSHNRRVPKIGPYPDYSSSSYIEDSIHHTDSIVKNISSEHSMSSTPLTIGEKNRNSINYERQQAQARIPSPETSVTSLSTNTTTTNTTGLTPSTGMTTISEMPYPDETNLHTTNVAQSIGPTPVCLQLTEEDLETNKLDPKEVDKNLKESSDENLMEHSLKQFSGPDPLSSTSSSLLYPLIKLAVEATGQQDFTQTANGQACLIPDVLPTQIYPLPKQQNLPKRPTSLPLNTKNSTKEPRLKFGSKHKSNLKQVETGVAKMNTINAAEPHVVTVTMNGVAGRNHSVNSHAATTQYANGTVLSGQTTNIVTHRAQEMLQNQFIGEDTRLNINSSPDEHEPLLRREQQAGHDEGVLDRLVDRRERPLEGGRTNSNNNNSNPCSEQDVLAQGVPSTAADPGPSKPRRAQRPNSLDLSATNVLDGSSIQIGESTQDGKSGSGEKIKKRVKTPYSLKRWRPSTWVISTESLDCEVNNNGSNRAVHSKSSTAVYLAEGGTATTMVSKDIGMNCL
Chain of INSR (human) (P06213 whole entry, looked up): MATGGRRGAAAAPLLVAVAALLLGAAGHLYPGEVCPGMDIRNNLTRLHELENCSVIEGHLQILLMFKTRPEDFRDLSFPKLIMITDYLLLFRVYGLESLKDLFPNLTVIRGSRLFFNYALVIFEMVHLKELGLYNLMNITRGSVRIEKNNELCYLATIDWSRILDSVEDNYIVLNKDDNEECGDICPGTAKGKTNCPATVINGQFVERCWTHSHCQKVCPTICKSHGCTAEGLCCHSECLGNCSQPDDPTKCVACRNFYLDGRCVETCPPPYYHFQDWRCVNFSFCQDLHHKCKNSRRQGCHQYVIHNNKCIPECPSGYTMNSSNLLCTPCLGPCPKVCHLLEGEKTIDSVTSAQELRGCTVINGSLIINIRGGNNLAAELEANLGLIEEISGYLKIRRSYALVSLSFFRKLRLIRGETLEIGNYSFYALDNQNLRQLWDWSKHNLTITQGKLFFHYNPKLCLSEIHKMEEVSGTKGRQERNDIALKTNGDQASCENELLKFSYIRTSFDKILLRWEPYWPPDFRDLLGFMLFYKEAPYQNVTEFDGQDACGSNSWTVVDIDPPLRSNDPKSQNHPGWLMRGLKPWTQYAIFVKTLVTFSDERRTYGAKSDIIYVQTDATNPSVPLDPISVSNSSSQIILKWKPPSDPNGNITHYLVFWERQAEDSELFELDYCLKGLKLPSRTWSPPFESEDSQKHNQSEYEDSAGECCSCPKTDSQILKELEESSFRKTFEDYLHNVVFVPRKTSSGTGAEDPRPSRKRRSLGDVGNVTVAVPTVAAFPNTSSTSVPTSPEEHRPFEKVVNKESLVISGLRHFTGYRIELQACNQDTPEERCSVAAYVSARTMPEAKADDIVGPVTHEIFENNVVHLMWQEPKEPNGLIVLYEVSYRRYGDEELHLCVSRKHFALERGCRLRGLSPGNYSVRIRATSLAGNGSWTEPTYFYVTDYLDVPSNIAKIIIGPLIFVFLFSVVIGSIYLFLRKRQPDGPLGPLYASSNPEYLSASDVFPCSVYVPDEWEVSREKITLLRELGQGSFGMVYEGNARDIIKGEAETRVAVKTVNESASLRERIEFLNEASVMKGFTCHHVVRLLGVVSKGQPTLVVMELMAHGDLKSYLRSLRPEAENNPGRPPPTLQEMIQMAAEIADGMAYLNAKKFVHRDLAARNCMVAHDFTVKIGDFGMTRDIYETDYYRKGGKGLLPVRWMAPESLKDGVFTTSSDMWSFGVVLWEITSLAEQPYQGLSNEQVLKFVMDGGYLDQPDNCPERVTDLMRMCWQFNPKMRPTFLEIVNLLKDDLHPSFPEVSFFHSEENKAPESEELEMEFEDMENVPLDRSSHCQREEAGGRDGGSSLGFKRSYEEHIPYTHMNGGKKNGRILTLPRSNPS

Row | SMILES | kinase still bound, per cent of control [1] [%] | kinase still bound, per cent of control [2] [%] | kinase still bound, per cent of control [3] [%] | kinase still bound, per cent of control [4] [%] | kinase still bound, per cent of control [5] [%] | kinase still bound, per cent of control [7] [%] | kinase still bound, per cent of control [8] [%] | kinase still bound, per cent of control [9] [%] | kinase still bound, per cent of control [10] [%] | kinase still bound, per cent of control [11] [%] | kinase still bound, per cent of control [12] [%] | kinase still bound, per cent of control [13] [%] | kinase still bound, per cent of control [14] [%] | kinase still bound, per cent of control [15] [%] | kinase still bound, per cent of control [16] [%] | kinase still bound, per cent of control [17] [%] | kinase still bound, per cent of control [18] [%] | kinase still bound, per cent of control [19] [%] | kinase still bound, per cent of control [20] [%] | kinase still bound, per cent of control [21] [%] | other results
1 | COCC(=O)NC/C=C/c1ccc2ncnc(Nc3ccc(Oc4ccc(C)nc4)c(C)c3)c2c1 | 100 | 73 | 87 | 96 | 93 | 90 | 100 | 59 | 89 | 100 | 100 | 100 | 100 | 84 | 100 | 100 | 100 | 70 | 100 | 59 | kinase still bound, per cent of control [6]: 69%; kinase still bound, per cent of control [22]: 100%; kinase still bound, per cent of control [23]: 9.4%; kinase still bound, per cent of control [24]: 80%; kinase still bound, per cent of control [25]: 100%; kinase still bound, per cent of control [26]: 100%; kinase still bound, per cent of control [27]: 100%; kinase still bound, per cent of control [28]: 100%; kinase still bound, per cent of control [29]: 99%; kinase still bound, per cent of control [30]: 100%; kinase still bound, per cent of control [31]: 85%; kinase still bound, per cent of control [32]: 73%; kinase still bound, per cent of control [33]: 100%; kinase still bound, per cent of control [34]: 86%; kinase still bound, per cent of control [35]: 87%; kinase still bound, per cent of control [36]: 47%; kinase still bound, per cent of control [37]: 68%
2 | COc1cc(N2CCN(C)CC2)ccc1Nc1ncc2c(n1)N(C)c1ccccc1C(=O)N2C | 100 | 100 | 100 | 100 | 32 | 100 | 100 | 100 | 100 | 0.65 | 100 | 100 | 2.6 | 9.8 | 100 | 100 | 100 | 100 | 100 | 100 | kinase still bound, per cent of control [38]: 100%; kinase still bound, per cent of control [39]: 100%; kinase still bound, per cent of control [40]: 100%; kinase still bound, per cent of control [41]: 100%; kinase still bound, per cent of control [22]: 100%; kinase still bound, per cent of control [23]: 100%; kinase still bound, per cent of control [24]: 100%; kinase still bound, per cent of control [25]: 100%; kinase still bound, per cent of control [26]: 100%; kinase still bound, per cent of control [28]: 100%; kinase still bound, per cent of control [29]: 100%; kinase still bound, per cent of control [30]: 100%; kinase still bound, per cent of control [31]: 3.8%; kinase still bound, per cent of control [32]: 18%; kinase still bound, per cent of control [34]: 100%; kinase still bound, per cent of control [35]: 100%; kinase still bound, per cent of control [36]: 2.9%; kinase still bound, per cent of control [37]: 100%
3 | O=C1NC(=O)/C(=C/c2ccc3nccc(-c4ccncc4)c3c2)S1 | 39 | 100 | 57 | 32 | 4.8 | 57 | 44 | 80 | 1.7 | 77 | 100 | 100 | 81 | 0 | 47 | 71 | 1.2 | 59 | 0.25 | 62 | kinase still bound, per cent of control [38]: 68%; kinase still bound, per cent of control [6]: 61%; kinase still bound, per cent of control [39]: 31%; kinase still bound, per cent of control [40]: 77%; kinase still bound, per cent of control [22]: 100%; kinase still bound, per cent of control [23]: 1.8%; kinase still bound, per cent of control [24]: 82%; kinase still bound, per cent of control [25]: 100%; kinase still bound, per cent of control [26]: 92%; kinase still bound, per cent of control [27]: 72%; kinase still bound, per cent of control [28]: 62%; kinase still bound, per cent of control [29]: 31%; kinase still bound, per cent of control [30]: 31%; kinase still bound, per cent of control [31]: 89%; kinase still bound, per cent of control [32]: 19%; kinase still bound, per cent of control [33]: 66% and 84%; kinase still bound, per cent of control [34]: 96%; kinase still bound, per cent of control [35]: 81%; kinase still bound, per cent of control [36]: 74%; kinase still bound, per cent of control [37]: 39%
4 | NC(=O)Nc1cc(-c2cccc(F)c2)sc1C(=O)N[C@@H]1CCCNC1 | 4.8 | 3.4 | 0.2 | 6.2 | 3.6 | 0.25 | 0 | 0.05 | 5.4 | 2.4 | 0.65 | 16 | 0.65 | 2.9 | 0 | 100 | 12 | 68 | 0 | 0 | kinase still bound, per cent of control [38]: 0%; kinase still bound, per cent of control [6]: 46%; kinase still bound, per cent of control [39]: 0%; kinase still bound, per cent of control [40]: 27%; kinase still bound, per cent of control [22]: 88%; kinase still bound, per cent of control [23]: 0%; kinase still bound, per cent of control [24]: 7%; kinase still bound, per cent of control [25]: 100%; kinase still bound, per cent of control [26]: 18%; kinase still bound, per cent of control [27]: 100%; kinase still bound, per cent of control [28]: 0.7%; kinase still bound, per cent of control [29]: 38%; kinase still bound, per cent of control [30]: 1.8%; kinase still bound, per cent of control [31]: 0.3%; kinase still bound, per cent of control [32]: 1.4%; kinase still bound, per cent of control [33]: 27%; kinase still bound, per cent of control [34]: 53%; kinase still bound, per cent of control [35]: 0.4%; kinase still bound, per cent of control [36]: 0%; kinase still bound, per cent of control [37]: 0%
